These results are taken from patent US20240150293A1, “SPIROCYCLOHEXANE DERIVATIVES, PHARMACEUTICAL COMPOSITIONS CONTAINING THEM AND THEIR USES AS ANTI-APOPTOTIC INHIBITORS” (LES LABORATOIRES SERVIER, priority 2021, published 2024).

The target in test [1] is Cy5-labelled Mcl1 (amino acids 171-321) C286S protein (UniProtKB Q07820) (Homo sapiens (Human), UniProt Q07820, C286S). The experiment in a line: Inhibition of Mcl-1 by the fluorescence quenching assay (Example A, Method B). The format is binding. The method, boiled down: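 Eleven-point compound series incubated 2 h at room temperature with 1 nM Cy5-tagged protein and quencher-labelled PUMA peptide at 10, 20 or 400 nM in HEPES/NaCl/Tween 20, pH 7.4, 5% DMSO. IC50 for 50% fluorescence increase by 4-parameter fit, then Ki derived (complete cKi or estimated eKi).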
Cy5-labelled Mcl1 (amino acids 171-321) C286S protein, sequence (Q07820 171-321 C286S): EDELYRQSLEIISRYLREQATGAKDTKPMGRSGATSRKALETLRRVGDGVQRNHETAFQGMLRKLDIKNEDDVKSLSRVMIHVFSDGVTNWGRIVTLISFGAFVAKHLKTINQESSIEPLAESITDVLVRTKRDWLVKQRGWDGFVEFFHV

Another test has as its system NCI-H929 cell lines. Briefly: In vitro cytotoxicity, CellTiter-Glo (CTG) assay (Example B, Method B). The format is cell-based. To be noted: NCI-H929 cells, 48 h incubation, read-out: C50. The essentials:
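ATP-based luminescence (CellTiter-Glo) after 48 h incubation at 37° C., 5% CO2 gave NCI-H929 viability. Eleven concentrations tested, highest final 30 μM, dispensed acoustically from 10 mM DMSO stocks; C50 defined as concentration reaching 50% viability.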
(Cellular ATP, detected with luciferase, serves as a proxy for viable cell number.)

One may read the Ki as a dissociation constant, usually derived from enzyme kinetics or from competition with a known ligand.

Like-named read-outs stand apart in the source and are kept apart here.

As for `C[C@@H]1CCCc2nccc(OC[C@@H](C[C@H]3Cc4ccccc4[C@]34CC[C@@](Nc3cccc(Cl)c3)(C(=O)O)CC4)c3ccccc3)c21` [Example 797, (1r,2′S,4S)-4-(3-chloroanilino)-2′-[(2S)-3-{[(5R)-5-methyl-5,6,7,8-tetrahydroquinolin-4-yl]oxy}-2-phenylpropyl]-2′,3′-dihydrospiro[cyclohexane-1,1′-indene]-4-carboxylic acid], the inhibitory constant (Ki) in test [1] turned out to be 0.259 nM. For the same compound, the IC50 with NCI-H929 cell lines (Homo sapiens, NCI-H929, 48 h) worked out at 251 nM.

Regarding `C[C@@H](COc1ccnc2c1[C@H](C)CCC2)C[C@H]1Cc2cc3c(cc2[C@]12CC[C@@](Nc1cccc(Cl)c1)(C(=O)O)CC2)OC(C)(C)O3` [Example 848, (1r,4S,6′S)-4-(3-chloroanilino)-2′,2′-dimethyl-6′-[(2R)-2-methyl-3-{[(5R)-5-methyl-5,6,7,8-tetrahydroquinolin-4-yl]oxy}propyl]-6′,7′-dihydro-2′H-spiro[cyclohexane-1,5′-indeno[5,6-d][1,3]dioxole]-4-carboxylic acid], in test [1], the Ki was 0.0343 nM. Moreover, in the test with NCI-H929 cell lines (Homo sapiens, NCI-H929, 48 h), the IC50 stood at 48.6 nM.

Take `C[C@@H](COc1ccnc2c1[C@H](C)CCC2)C[C@H]1Cc2cc3c(cc2[C@]12CC[C@@](Nc1cccc(Cl)c1)(C(=O)O)CC2)OCC1(CC1)CO3` [Example 994, (1r,4S,8′S)-4-(3-chloroanilino)-8′-[(2R)-2-methyl-3-{[(5R)-5-methyl-5,6,7,8-tetrahydroquinolin-4-yl]oxy}propyl]-8′,9′-dihydro-2′H,4′H-dispiro[cyclohexane-1,7′-indeno[5,6-b][1,4]dioxepine-3′,1″-cyclopropane]-4-carboxylic acid]: in test [1], the Ki is 0.0442 nM. The IC50 with NCI-H929 cell lines (Homo sapiens, NCI-H929, 48 h) was 59.7 nM.

Consider `C[C@@H](COc1ccnc2c1[C@H](C)CCC2)C[C@H]1Cc2cc3c(cc2[C@]12CC[C@@](Nc1cccc(Cl)c1)(C(=O)OCOP(=O)(O)O)CC2)OCO3` [Example 952, (phosphonooxy)methyl (1r,4S,6′S)-4-(3-chloroanilino)-6′-[(2R)-2-methyl-3-{[(5R)-5-methyl-5,6,7,8-tetrahydroquinolin-4-yl]oxy}propyl]-6′,7′-dihydro-2′H-spiro[cyclohexane-1,5′-indeno[5,6-d][1,3]dioxole]-4-carboxylate], for which, in test [1], the Ki came out at 0.371 nM. The IC50 in the test with NCI-H929 cell lines (Homo sapiens, NCI-H929, 48 h) is 96 nM.

Consider `CC1CCNc2nccc(OC[C@H](C)C[C@H]3Cc4ccccc4[C@]34CC[C@@](Nc3cccc(Cl)c3)(C(=O)O)CC4)c21` (single isomer, unassigned) [Example 641], for which the Ki in test [1] turned out to be 14 nM. Further, the IC50 in the test on NCI-H929 cell lines was found to be 3030 nM.

On to `C[C@@H](COc1ccnc2c1[C@H](C)CCC2)CC1=Cc2c(Cl)c(Cl)ccc2[C@]12CC[C@@](Nc1cccc(Cl)c1)(C(=O)O)CC2` [Example 750, (1r,4R)-4′,5′-dichloro-4-(3-chloroanilino)-2′-[(2R)-2-methyl-3-{[(5R)-5-methyl-5,6,7,8-tetrahydroquinolin-4-yl]oxy}propyl]spiro[cyclohexane-1,1′-indene]-4-carboxylic acid], for which the inhibitory constant (Ki) in test [1] worked out at 1.06 nM. In the test with NCI-H929 cell lines (Homo sapiens, NCI-H929, 48 h), the IC50 was determined as 378 nM.

Turning to `C[C@@H](COc1ccnc2c1[C@H](C)CCC2)C[C@H]1Cc2cc3c(cc2[C@]12CC[C@@](Nc1cccc(Cl)c1)(C(=O)O)CC2)OC[C@@H](C)O3` [Example 974, (1r,2′R,4S,7′S)-4-(3-chloroanilino)-2′-methyl-7′-[(2R)-2-methyl-3-{[(5R)-5-methyl-5,6,7,8-tetrahydroquinolin-4-yl]oxy}propyl]-2′,3′,7′,8′-tetrahydrospiro[cyclohexane-1,6′-indeno[5,6-b][1,4]dioxine]-4-carboxylic acid], in test [1], the inhibition constant (Ki) was determined as 0.023 nM. The IC50 in the test on NCI-H929 cell lines (Homo sapiens, NCI-H929, 48 h) came to 60.4 nM.

As for `Cc1ccc2c(c1)C[C@H](C[C@@H](C)COc1ccnc3c1[C@H](C)CCC3)[C@]21CC[C@](Nc2cccc(Cl)c2)(C(=O)O)CC1` [Example 853, (1r,2′S,4S)-4-(3-chloroanilino)-5′-methyl-2′-[(2R)-2-methyl-3-{[(5R)-5-methyl-5,6,7,8-tetrahydroquinolin-4-yl]oxy}propyl]-2′,3′-dihydrospiro[cyclohexane-1,1′-indene]-4-carboxylic acid], the Ki in test [1] came out at 0.0917 nM. The IC50 with NCI-H929 cell lines (Homo sapiens, NCI-H929, 48 h) worked out at 137 nM.

With `C[C@@H](COc1ccnc2c1[C@H](C)CCC2)C[C@H]1Cc2ccc(OCC(F)(F)F)cc2[C@]12CC[C@@](Nc1cccc(Cl)c1)(C(=O)O)CC2` [Example 792, (1r,2′S,4S)-4-(3-chloroanilino)-2′-[(2R)-2-methyl-3-{[(5R)-5-methyl-5,6,7,8-tetrahydroquinolin-4-yl]oxy}propyl]-6′-(2,2,2-trifluoroethoxy)-2′,3′-dihydrospiro[cyclohexane-1,1′-indene]-4-carboxylic acid], the Ki in test [1] is 0.469 nM. The IC50 in the test with NCI-H929 cell lines (Homo sapiens, NCI-H929, 48 h) was 143 nM.

Regarding `CC(C)C1COc2cc3c(cc2OC1)[C@]1(CC[C@@](Nc2cccc(Cl)c2)(C(=O)O)CC1)[C@@H](C[C@@H](C)COc1ccnc2c1[C@H](C)CCC2)C3` (single isomer, unassigned) [Example 992], the Ki in test [1] was found to be 0.0795 nM. In the test with NCI-H929 cell lines (Homo sapiens, NCI-H929, 48 h), the IC50 was determined as 184 nM.

On to `C[C@@H](COc1ccnc2c1[C@H](C)CCC2)C[C@H]1Cc2ccccc2[C@]12CC[C@@](Nc1ccc(F)c(Cl)c1F)(C(=O)O)CC2` [Example 707, (1r,2′S,4S)-4-(3-chloro-2,4-difluoroanilino)-2′-[(2R)-2-methyl-3-{[(5R)-5-methyl-5,6,7,8-tetrahydroquinolin-4-yl]oxy}propyl]-2′,3′-dihydrospiro[cyclohexane-1,1′-indene]-4-carboxylic acid], for which, in test [1], the Ki worked out at 0.585 nM. Further, in the test with NCI-H929 cell lines (Homo sapiens, NCI-H929, 48 h), the IC50 came to 230 nM.

In the case of `C[C@@H](COc1ccnc2c1[C@H](C)CC[C@H]2C)C[C@H]1Cc2cc3c(cc2[C@]12CC[C@@](Nc1cccc(Cl)c1)(C(=O)O)CC2)OCCO3` [Example 963, (1r,4S,7′S)-4-(3-chloroanilino)-7′-[(2R)-3-{[(5R,8R)-5,8-dimethyl-5,6,7,8-tetrahydroquinolin-4-yl]oxy}-2-methylpropyl]-2′,3′,7′,8′-tetrahydrospiro[cyclohexane-1,6′-indeno[5,6-b][1,4]dioxine]-4-carboxylic acid], the inhibitory constant (Ki) in test [1] was determined as 0.0235 nM. For the same compound, in the test on NCI-H929 cell lines (Homo sapiens, NCI-H929, 48 h), the IC50 came to 97.3 nM.

For `C[C@@H](COc1ccnc2c1[C@H](C)CCC2)C[C@H]1Cc2cc3c(cc2[C@]12CC[C@@](Nc1cccc(Cl)c1)(C(=O)O)CC2)O[C@@H](C)[C@H](C)O3` [Example 975, (1r,2′S,3'S,4S,7′S)-4-(3-chloroanilino)-2′,3′-dimethyl-7′-[(2R)-2-methyl-3-{[(5R)-5-methyl-5,6,7,8-tetrahydroquinolin-4-yl]oxy}propyl]-2′,3′,7′,8′-tetrahydrospiro[cyclohexane-1,6′-indeno[5,6-b][1,4]dioxine]-4-carboxylic acid], the Ki in test [1] is 0.0244 nM. Moreover, the IC50 in the test on NCI-H929 cell lines (Homo sapiens, NCI-H929, 48 h) worked out at 80.2 nM.

For the compound `COC[C@H]1C[C@@H]1c1ccc2c(c1)[C@]1(CC[C@@](Nc3cccc(Cl)c3)(C(=O)O)CC1)[C@@H](C[C@@H](C)COc1ccnc3c1[C@H](C)CCC3)C2` [Example 874, (1r,2′S,4S)-4-(3-chloroanilino)-6′-[(1S,2S)-2-(methoxymethyl)cyclopropyl]-2′-[(2R)-2-methyl-3-{[(5R)-5-methyl-5,6,7,8-tetrahydroquinolin-4-yl]oxy}propyl]-2′,3′-dihydrospiro[cyclohexane-1,1′-indene]-4-carboxylic acid], in test [1], the Ki stood at 0.161 nM. Besides, in the test on NCI-H929 cell lines (Homo sapiens, NCI-H929, 48 h), the IC50 is 113 nM.

Take `CC(C)Oc1cc2c(cc1Cl)C[C@H](C[C@@H](C)COc1ccnc3c1[C@H](C)CCC3)[C@]21CC[C@](Nc2cccc(Cl)c2)(C(=O)O)CC1` [Example 819, (1r,2′S,4S)-5′-chloro-4-(3-chloroanilino)-2′-[(2R)-2-methyl-3-{[(5R)-5-methyl-5,6,7,8-tetrahydroquinolin-4-yl]oxy}propyl]-6′-[(propan-2-yl)oxy]-2′,3′-dihydrospiro[cyclohexane-1,1′-indene]-4-carboxylic acid]: the Ki in test [1] was 0.162 nM. Also, in the test on NCI-H929 cell lines (Homo sapiens, NCI-H929, 48 h), the IC50 worked out at 151 nM.

Consider `CC(C)C1COc2cc3c(cc2OC1)[C@]1(CC[C@@](Nc2cccc(Cl)c2)(C(=O)O)CC1)[C@@H](C[C@@H](C)COc1ccnc2c1[C@H](C)CCC2)C3` (single isomer, unassigned) [Example 993], for which, in test [1], the Ki came to 0.0666 nM. Further, the IC50 in the test on NCI-H929 cell lines came out at 143 nM.

Turning to `C[C@@H](COc1ccnc2c1[C@H](C)CCC2)C[C@H]1Cc2cc3c(cc2[C@]12CC[C@@](Nc1cccc(Cl)c1)(C(=O)O)CC2)OCC[C@H](C)O3` [Example 985, (1r,2′S,4S,8′S)-4-(3-chloroanilino)-2′-methyl-8′-[(2R)-2-methyl-3-{[(5R)-5-methyl-5,6,7,8-tetrahydroquinolin-4-yl]oxy}propyl]-3′,4′,8′,9′-tetrahydro-2′H-spiro[cyclohexane-1,7′-indeno[5,6-b][1,4]dioxepine]-4-carboxylic acid], the inhibitory constant (Ki) in test [1] worked out at 0.0955 nM. The IC50 in the test on NCI-H929 cell lines (Homo sapiens, NCI-H929, 48 h) was 121 nM.

As for `C[C@@H](COc1c(Cl)cnc2c1[C@H](C)CCC2)C[C@H]1Cc2cc3c(cc2[C@]12CC[C@@](Nc1ccc(F)c(Cl)c1)(C(=O)O)CC2)OCO3` [Example 886, (1r,4S,6′S)-4-(3-chloro-4-fluoroanilino)-6′-[(2R)-3-{[(5R)-3-chloro-5-methyl-5,6,7,8-tetrahydroquinolin-4-yl]oxy}-2-methylpropyl]-6′,7′-dihydro-2′H-spiro[cyclohexane-1,5′-indeno[5,6-d][1,3]dioxole]-4-carboxylic acid], the Ki in test [1] came to 0.145 nM. For the same compound, in the test on NCI-H929 cell lines (Homo sapiens, NCI-H929, 48 h), the IC50 amounted to 381 nM.

In the case of `CCC1Oc2cc3c(cc2O1)[C@]1(CC[C@@](Nc2cccc(Cl)c2)(C(=O)O)CC1)[C@@H](C[C@@H](C)COc1ccnc2c1[C@H](C)CCC2)C3` (single isomer, unassigned) [Example 967], in test [1], the inhibition constant (Ki) is 0.0263 nM. In the test on NCI-H929 cell lines (Homo sapiens, NCI-H929, 48 h), the IC50 amounted to 137 nM.
